This is an account of results in publication PMC8824275, “Gastrointestinal Stability and Cytotoxicity of Bacteriocins From Gram-Positive and Gram-Negative Bacteria: A Comparative in vitro Study” (Frontiers in Microbiology, 2022).

What is called MIC is the lowest concentration that inhibits growth of the organism. Low values mean inhibition by little substance, high ones a need for much substance.

In one series the test system is Caco-2 cells. The experiment in a line: LDH release assay (membrane integrity). The class given is cell-based, human. Particulars: Caco-2, CytoTox-ONE LDH release, 0.4 to 400 μg/mL, 24 h (method: 48 h), 37°C, mean of three experiments. As for the experimental part: The human colonic adenocarcinoma (Caco-2) cells were purchased from ATCC. Cells were cultured in DMEM medium in a humidified atmosphere containing 5% CO2 at 37°C. For the LDH release assay, cells were seeded in 96 well flat bottom culture plates (1 × 10^4 cells/well). Caco-2 cells, which have been frequently used for permeability studies across the intestinal epithelium, were selected in this study for evaluating the cytotoxicity of bacteriocins and their interaction with intestinal epithelium during GI transit to determine their cytotoxicity.
The CytoTox-ONE™ cytotoxicity assay kit (Promega, United States) was used to measure the LDH release. […] Lysis solution (Promega) was added in a 1:1 ratio to selected control wells to induce the maximal release of LDH and the plate was incubated for 5 min. […] Finally, stop solution was then added to each well, and absorbance was measured using a spectrophotometer (Tecan Spark 20M, Morrisville, NC, United States) at excitation/emission wavelengths of 560/590 nm. Each compound-treated value was blanked with the values of the control-treated cells and cytotoxicity was expressed as percentage of the maximal LDH release (lysis solution treated cells), calculated by the following formula: […]
For orientation: Release of lactate dehydrogenase indicates damage to the cell membrane.

The subject of another series is rat erythrocytes. The experiment in a line: Hemolytic activity. The class given is cell-based. As to conditions: 45 min, 37°C. How it is done: The experiment was performed after prior approval from the local ethics committee by TransBIOTech laboratory. Hemolytic potential of bacteriocins was evaluated according to [FDA (2005)]. Rat blood was collected into a heparinized tube and added in a 1:1 volume (100 μL) to serially diluted compounds (in 100 μL PBS), in a conical 96-well plate. 10% Triton X-100 and PBS were used as a positive and negative controls, respectively. The plates were sealed and incubated for 45 min at 37°C prior to centrifugation at 2,000 g for 10 min to pellet red blood cells. The supernatant was then transferred into clear 96-well plates and the absorbance was read at 540 nm (hemoglobin). The percentage of hemolysis was calculated as follow, with RBC standing for red blood cells:
%Hemolysis=AbsorbanceofRBCtreatedwithbacteriocins-AbsorbanceofRBCtreatedwithPBS/AbsorbanceofRBCtreatedwithTritonX100-AbsorbanceofRBCtreatedwithPBS

A further series has as its system L. ivanovii HPB 28. The class given is cell-based, Listeria ivanovii. Particulars: for Total activity: broth microdilution. The source says:
Microcin J25 was produced by Escherichia coli MC4100 carrying the plasmid PTUC 202 ([Solbiati et al., 1999]). For the antibacterial activity of pure compounds and digestion mixture, Listeria ivanovii HPB28 (Canada Health Protection Branch) was used as indicator strain for nisin and pediocin PA-1, while Staphylococcus aureus ATCC 6538 (ATCC) and Salmonella enterica subsp. enterica serovar Newport ATCC 6962 (later referred to as S. Newport, ATCC) were used as indicator strains for bactofencin A (M14L, M18L) and microcin J25, respectively. L. ivanovii HPB28 and S. aureus were cultured in Tryptic Soy (Difco Laboratories, Spark, MD, United States) supplemented with 0.6% yeast extract (TSBYE), at 30 and 37°C, respectively. S. Newport was cultured at 37°C overnight in Luria-Bertani (LB) (Difco Laboratories, Spark, MD, United States). All strains were maintained at –80°C as stock cultures in their corresponding culture media supplemented with 20% glycerol, and propagated twice at 24 h intervals before use.
Quantitative determination of inhibitory activity of bacteriocins was carried out using the broth microdilution method as described by [Ben Said et al. (2020)]. Two-fold serial dilutions of bacteriocins (125 μL) were prepared in an appropriate medium in a clear 96-well flat-bottom microtiter plate. Indicator strains were diluted to 10^5 CFU/mL, from which 50 μL were added to each well. The microtiter plates were incubated for 24 h under appropriate conditions, and optical densities were recorded at 595 nm (Infinite M200, Tecan, Switzerland). Control wells contained untreated culture and appropriate medium (blanks). The number of inhibition wells was noted and inhibition activities were calculated in μg/mL.

Converted amounts (≈) assume the structure as drawn. Like-named read-outs stand apart in the source and are kept apart here.

Take `C=C(NC(=O)[C@@H](NC(=O)[C@H](Cc1c[nH]cn1)NC(=O)[C@@H](NC(=O)[C@H](CO)NC(=O)[C@@H]1CS[C@@H](C)[C@H]2NC(=O)[C@H](C)NC(=O)[C@H](NC(=O)[C@H](CCCCN)NC(=O)[C@H](CCSC)NC(=O)[C@H](CC(N)=O)NC(=O)[C@@H]3CS[C@@H](C)[C@@H](NC(=O)[C@H](CCCCN)NC(=O)[C@@H]4CS[C@@H](C)[C@@H](NC(=O)[C@@H]5CSC[C@@H](NC(=O)/C(=C/C)NC(=O)[C@@H](N)[C@@H](C)CC)C(=O)N[C@@H]([C@@H](C)CC)C(=O)NC(=C)C(=O)N[C@@H](CC(C)C)C(=O)N5)C(=O)N5CCC[C@H]5C(=O)NCC(=O)N4)C(=O)NCC(=O)N[C@@H](C)C(=O)N[C@@H](CC(C)C)C(=O)N[C@@H](CCSC)C(=O)NCC(=O)N3)[C@H](C)SC[C@H](NC2=O)C(=O)N[C@@H](CC(N)=O)C(=O)N1)[C@@H](C)CC)C(C)C)C(=O)N[C@@H](CCCCN)C(=O)O` [nisin Z]: the “Membrane integrity (LDH release)” value with Caco-2 cells is recorded as “uncompromised”. Moreover, the “Concentration above which dose-dependent increase in percentage of hemolysis was shown” value in the series on rat erythrocytes (0.4 to 400 μg/mL) was “higher than 50 μg/mL”. Further, in the series with rat erythrocytes (at concentrations close to 400 μg/mL), the Hemolysis entry is listed as “approximately 100%”. The Total activity with L. ivanovii HPB 28 (after gastric conditions (SGF, pepsin 2000 U/mL, lipase 60 U/mL, pH 3, 90 min, 37°C)) was 3.12 AU/mL; in the series on L. ivanovii HPB 28 (after oral conditions (SSF, 2 min, 37°C)), 3.12 AU/mL; with L. ivanovii HPB 28 (after small intestinal conditions (SIF, bile salt 10 mmol/L, pancreatin 100 U/mL, pH 7, 2 h, 37°C)) it was 200 AU/mL; with L. ivanovii HPB 28 (pure compound without GI digestion, 24 h, OD 595 nm) it was 3.12 AU/mL. This compound came in with an MIC in the series on L. ivanovii HPB 28 (against L. ivanovii) of 1.65 µg/mL (≈ 0.495 µM).
